Measurements reported in patent US20170165200A1, “COMPOSITION OF LIPID-BASED NANOPARTICLES FOR SMALL MOLECULES AND MACROMOLECULES” (University of North Texas Health Science Center, priority 2015, published 2017).

Columns and labels:
[1] = mice; cited from earlier work
PC12 cells = test: Neurite outgrowth study; type: cell-based
Procedure: Neurite Outgrowth Study. It is important to maintain protein's activity after the formulation of the NPs. Thus, the inventors chose to measure the bioactivity of NGF HDL-mimicking NPs in PC12 cells for neurite outgrowth. They pre-coated a 6-well plate with rat tail collagen type I. They seeded PC12 cells at a density of 10000 cells/well to the pre-coated 6-well plate overnight to allow cells to attach on the plates. They diluted free NGF (10 μg/ml) and NGF HDL-mimicking NPs (10 μg/ml) with the culture medium to prepare various concentrations at 0.5, 1, 5, 10, 50, and 100 ng/ml using half-half dilution. Then, they added 100 μl of sample into each well of the plate and culture for 4 days. At day 4 they changed the medium to fresh medium containing the corresponding treatment and then continue the treatment for another 3 days. At day 7, they visualized cells by an inverted light microscope and take the imaging from each well at random spots under 10× magnification.

[2] = In vitro release of NGF by dialysis in 5% BSA-PBS; type: physicochemical; details: 5% BSA-PBS (pH 7), 37° C., first hour (n=4)
Procedure: In vitro release study. The release of NGF from NGF NPs (n=4) was studied using a dialysis method. The release medium was PBS (pH 7) containing 5% BSA to mimic the physiological condition in blood. Briefly, 200 μl NGF NPs and […] release medium were loaded into the dialysis tube (invco 300 kDa). Then the dialysis tube was placed into a 30 ml release medium and shaken at a 37° C. at 135 rpm. At the time intervals (1, 2, 4, 6, 8, 24, 48 and 72 hours), 100 μl of the release medium were withdrawn and replaced with an equal volume of fresh medium. The amounts of released NGF in the medium were analyzed by a NGF Sandwich ELISA kit. As a control, free NGF (n=4) was studied in parallel.

[3] = rat, in vivo, iv; cited from earlier work

In the case of CC(=O)O[C@@]12CO[C@@H]1C[C@H](O)[C@@]1(C)C(=O)[C@H](O)C3=C(C)[C@@H](OC(=O)[C@H](O)[C@@H](NC(=O)OC(C)(C)C)c4ccccc4)C[C@@](O)([C@@H](OC(=O)c4ccccc4)[C@H]21)C3(C)C [DTX, Docetaxel], the “maximal tolerate dose of single dose” value [1] is given as 15 to 33 mg/kg.

For “free NGF: Recombinant human NGF (nerve growth factor)”, the neurite outgrowth (PC12 cells; day 7, concentration of NGF lower than 10 ng/ml) was “neurite outgrowth cannot be observed clearly”, the neurite outgrowth (PC12 cells; day 7, treatment concentration higher than 10 ng/ml) was “neurite outgrowth was clearly observed” and the NGF released [2] was 83%. For the same compound, the half-life [3] was “about 5.4 min”.
